Results as given in patent publication EP0531958A1, “6-Aminoquinolones, their synthesis and their use as antibacterial agents” (MEDIOLANUM FARMACEUTICI S.P.A., priority 1991, dated 1993).
In brackets after ≈: the same amount, converted by molar mass. Where two headings read alike, the source gives them in different places.

Assays:
Format in all cases: cell-based
Gram + = assay: MIC test, average over the 5 gram-positive test germs; details: 24 h
Method: (§1) As to the antibacterial activity, there was determined the Least (Minimum) Inhibiting Concentration (MIC), by working according to the following operative conditions.
(§2) There were used suspensions of test germs (5 gram-positive and 15 gram-negative) having a known titre, kept freezed at -80°C and diluted, at the time of use, in peptonized water up to a concentration of 1-2.10⁷ cfu/ml.
(§3) A few mg of the products, according to the invention were weighed sufficient for preparing parent solutions in DMSO + NaOH (1N) containing 2560 µg/ml (64µg/ml/dish). From the thus prepared parent solutions there were prepared 12 serial dilutions (1:2) down to the concentration of 1.25 µg/ml.
(§4) 0.5 ml of the different dilutions of each product were distributed on dishes containing 19.5 ml of agarized medium (TSA), maintained in a fluid state at the temperature of 50°C. After slight stirring, the dishes were made to solidify and dry under hood (laminar flow).
(§5) The MIC tests (Least or "Minimum" Inhibiting Concentration) were performed by using a Steers multiwell inoculator having 36 wells, each containing 200 µl of bacterial suspension.
(§6) After inoculation, the dishes were placed into a thermostat and checked after 24 h of incubation at 35°C.
(§7) The MIC is defined as the lowermost product concentration (µg/ml) inhibiting the visible growth of the microorganisms.

Gram - = assay: MIC test, average over the 15 gram-negative test germs; details: 24 h
Method: as §1, §2, §3, §4, §5, §6, §7

[1] = system: Escherichia coli ATCC 8739; assay: MIC test, agar dilution with Steers multiwell inoculator; details: ATCC8739, TSA dishes, 24 h at 35°C, read-out: Minimum Inhibiting Concentration
Method: as §1, §2, §3, §4, §5, §6, §7

[2] = system: Pseudomonas aeruginosa CNUR 4; assay: as above; details: CNUR4, TSA dishes, 24 h at 35°C, read-out: Minimum Inhibiting Concentration
Method: as §1, §2, §3, §4, §5, §6, §7

[3] = system: Staphylococcus epidermidis HCF Berset C.; assay: as above; details: TSA dishes, 24 h at 35°C, read-out: Minimum Inhibiting Concentration
Method: as §1, §2, §3, §4, §5, §6, §7

[4] = system: Pseudomonas aeruginosa CNUR 2; assay: as above; details: CNUR2, TSA dishes, 24 h at 35°C, read-out: Minimum Inhibiting Concentration
Method: as §1, §2, §3, §4, §5, §6, §7

Shighella enteritidis = assay: as above; details: TSA dishes, 24 h at 35°C, read-out: Minimum Inhibiting Concentration
Method: as §1, §2, §3, §4, §5, §6, §7

[5] = system: Staphylococcus epidermidis CPHL A2; assay: as above; details: CPHLA2, TSA dishes, 24 h at 35°C, read-out: Minimum Inhibiting Concentration
Method: as §1, §2, §3, §4, §5, §6, §7

[6] = system: Pseudomonas aeruginosa ATCC 9027; assay: as above; details: ATCC9027, TSA dishes, 24 h at 35°C, read-out: Minimum Inhibiting Concentration
Method: as §1, §2, §3, §4, §5, §6, §7

[7] = system: Enterobacter cloacae OMNF 1153; assay: as above; details: OMNF1153, TSA dishes, 24 h at 35°C, read-out: Minimum Inhibiting Concentration
Method: as §1, §2, §3, §4, §5, §6, §7

[8] = system: Klebsiella pneumoniae ATCC 10031; assay: as above; details: ATCC10031, TSA dishes, 24 h at 35°C, read-out: Minimum Inhibiting Concentration
Method: as §1, §2, §3, §4, §5, §6, §7

[9] = system: Staphylococcus aureus MPR 5; assay: as above; details: MPR5, TSA dishes, 24 h at 35°C, read-out: Minimum Inhibiting Concentration
Method: as §1, §2, §3, §4, §5, §6, §7

[10] = system: Streptococcus facealis LEP Br.; assay: as above; details: TSA dishes, 24 h at 35°C, read-out: Minimum Inhibiting Concentration
Method: as §1, §2, §3, §4, §5, §6, §7

Escherichia coli 120 = assay: as above; details: TSA dishes, 24 h at 35°C, read-out: Minimum Inhibiting Concentration
Method: as §1, §2, §3, §4, §5, §6, §7

[11] = system: Staphylococcus aureus ATCC 6538; assay: as above; details: ATCC6538, TSA dishes, 24 h at 35°C, read-out: Minimum Inhibiting Concentration
Method: as §1, §2, §3, §4, §5, §6, §7

[12] = system: Providencia stuardii CNUR 5; assay: as above; details: CNUR5, TSA dishes, 24 h at 35°C, read-out: Minimum Inhibiting Concentration
Method: as §1, §2, §3, §4, §5, §6, §7

Escherichia coli CNUR 8 = assay: as above; details: CNUR8, TSA dishes, 24 h at 35°C, read-out: Minimum Inhibiting Concentration
Method: as §1, §2, §3, §4, §5, §6, §7

[13] = system: Enterobacter cloacae OMNF 1174; assay: as above; details: OMNF1174, TSA dishes, 24 h at 35°C, read-out: Minimum Inhibiting Concentration
Method: as §1, §2, §3, §4, §5, §6, §7

Escherichia coli CNUR 1 = assay: as above; details: CNUR1, TSA dishes, 24 h at 35°C, read-out: Minimum Inhibiting Concentration
Method: as §1, §2, §3, §4, §5, §6, §7

Escherichia coli ISF 432 = assay: as above; details: ISF432, TSA dishes, 24 h at 35°C, read-out: Minimum Inhibiting Concentration
Method: as §1, §2, §3, §4, §5, §6, §7

Proteus vulgaris CNUR 6 = assay: as above; details: CNUR6, TSA dishes, 24 h at 35°C, read-out: Minimum Inhibiting Concentration
Method: as §1, §2, §3, §4, §5, §6, §7

[14] = system: Acinebacter calcoloaceticus OSMPV 1130; assay: as above; details: TSA dishes, 24 h at 35°C, read-out: Minimum Inhibiting Concentration
Method: as §1, §2, §3, §4, §5, §6, §7

[15] = geometrical average of the MIC over the 15 Gram - strains, read-out: Geometrical Average
[16] = mean log of the MIC over the 15 Gram - strains, read-out: Log (converted)
[17] = geometrical average of the MIC over the 5 Gram + strains, read-out: Geometrical Average

Structure (SMILES) | MIC (Gram +; read-out: Log (converted)) [µg/mL] | MIC (Gram -; [15]) [µg/mL] | MIC (Gram -; [16]) [µg/mL] | MIC [1] [µg/mL] | MIC [2] [µg/mL] | MIC [3] [µg/mL] | MIC [4] [µg/mL] | MIC [5] [µg/mL] | MIC [6] [µg/mL] | MIC [7] [µg/mL] | MIC [8] [µg/mL] | MIC [9] [µg/mL] | MIC [10] [µg/mL] | MIC (Escherichia coli 120) [µg/mL] | MIC [11] [µg/mL] | MIC [12] [µg/mL] | MIC (Escherichia coli CNUR 8) [µg/mL] | MIC [13] [µg/mL] | MIC (Escherichia coli CNUR 1) [µg/mL] | MIC (Escherichia coli ISF 432) [µg/mL] | further results
Nc1cc2c(=O)c(C(=O)O)cn(C3CC3)c2cc1N1CCCC1 [Compound 10] | 128 (≈ 408 µM) | 13.3 (≈ 42.4 µM) | 13.3 (≈ 42.5 µM) | 0.25 (≈ 0.798 µM) | 128 (≈ 408 µM) | 128 (≈ 408 µM) | 128 (≈ 408 µM) | 128 (≈ 408 µM) | 128 (≈ 408 µM) | 16 (≈ 51.1 µM) | 0.25 (≈ 0.798 µM) | 128 (≈ 408 µM) | 128 (≈ 408 µM) | 4 (≈ 12.8 µM) | 128 (≈ 408 µM) | 128 (≈ 408 µM) | 8 (≈ 25.5 µM) | 8 (≈ 25.5 µM) | 16 (≈ 51.1 µM) | 0.25 (≈ 0.798 µM) | MIC (Shighella enteritidis): 16 µg/mL (≈ 51.1 µM); MIC (Proteus vulgaris CNUR 6): 128 µg/mL (≈ 408 µM); MIC [14]: 128 µg/mL (≈ 408 µM)
Nc1cc2c(=O)c(C(=O)O)cn(-c3ccc(F)cc3)c2cc1N1CCSCC1 [Compound 51] | 2.3 (≈ 5.75 µM) | 3.01 (≈ 7.53 µM) | 3.01 (≈ 7.53 µM) | 0.06 (≈ 0.15 µM) | 128 (≈ 320 µM) | 2 (≈ 5.01 µM) | 128 (≈ 320 µM) | 2 (≈ 5.01 µM) | 128 (≈ 320 µM) | 4 (≈ 10 µM) | 0.03 (≈ 0.0751 µM) | 0.5 (≈ 1.25 µM) | 64 (≈ 160 µM) | 0.5 (≈ 1.25 µM) | 0.5 (≈ 1.25 µM) | 4 (≈ 10 µM) | 0.5 (≈ 1.25 µM) | 4 (≈ 10 µM) | 4 (≈ 10 µM) | 0.03 (≈ 0.0751 µM) | MIC (Gram +; [17]): 2.3 µg/mL; MIC (Proteus vulgaris CNUR 6): 128 µg/mL (≈ 320 µM); MIC [14]: 4 µg/mL (≈ 10 µM)
Nc1cc2c(=O)c(C(=O)O)cn(C3CC3)c2cc1N1CCC(O)CC1 [Compound 16] | 4 (≈ 11.6 µM) | 2.08 (≈ 6.05 µM) | 2.07 (≈ 6.04 µM) | 0.03 (≈ 0.0874 µM) | 128 (≈ 373 µM) | 4 (≈ 11.6 µM) | 128 (≈ 373 µM) | 2 (≈ 5.82 µM) | 8 (≈ 23.3 µM) | 2 (≈ 5.82 µM) | 0.03 (≈ 0.0874 µM) | 4 (≈ 11.6 µM) | 8 (≈ 23.3 µM) | 0.5 (≈ 1.46 µM) | 4 (≈ 11.6 µM) | 8 (≈ 23.3 µM) | 1 (≈ 2.91 µM) | 2 (≈ 5.82 µM) | 2 (≈ 5.82 µM) | 0.03 (≈ 0.0874 µM) | MIC (Gram +; [17]): 4 µg/mL; MIC (Proteus vulgaris CNUR 6): 128 µg/mL (≈ 373 µM); MIC [14]: 2 µg/mL (≈ 5.82 µM)
Nc1cc2c(=O)c(C(=O)O)cn(-c3ccc(F)cc3)c2cc1N1CCc2ccccc2C1 [Compound 52, 6-amino-1-(4-fluorophenyl)-7-[2-(1,2,3,4-tetrahydroisoquinolinyl)]-1,4-dihydro-4-oxo-quinoline carboxylic acid] | 3.03 (≈ 7.06 µM) | 4.56 (≈ 10.6 µM) | 4.56 (≈ 10.6 µM) | 0.12 (≈ 0.279 µM) | 128 (≈ 298 µM) | 4 (≈ 9.31 µM) | 128 (≈ 298 µM) | 2 (≈ 4.66 µM) | 128 (≈ 298 µM) | 8 (≈ 18.6 µM) | 0.12 (≈ 0.279 µM) | 1 (≈ 2.33 µM) | 64 (≈ 149 µM) | 1 (≈ 2.33 µM) | 0.5 (≈ 1.16 µM) | 8 (≈ 18.6 µM) | 1 (≈ 2.33 µM) | 4 (≈ 9.31 µM) | 4 (≈ 9.31 µM) | 0.12 (≈ 0.279 µM) | MIC (Gram +; [17]): 3.03 µg/mL; MIC (Proteus vulgaris CNUR 6): 128 µg/mL (≈ 298 µM); MIC [14]: 4 µg/mL (≈ 9.31 µM)
Cc1c(N2CCc3ccccc3C2)c(N)cc2c(=O)c(C(=O)O)cn(C3CC3)c12 [Compound 36, 6-amino-1-cyclopropyl-8-methyl-7-[2-(1,2,3,4-tetrahydroisoquinolinyl)]-carboxylic acid] | 1.15 (≈ 2.95 µM) | 3.98 (≈ 10.2 µM) | 3.98 (≈ 10.2 µM) | 0.12 (≈ 0.308 µM) | 128 (≈ 329 µM) | 2 (≈ 5.14 µM) | 8 (≈ 20.5 µM) | 1 (≈ 2.57 µM) | 32 (≈ 82.2 µM) | 8 (≈ 20.5 µM) | 0.12 (≈ 0.308 µM) | 0.5 (≈ 1.28 µM) | 4 (≈ 10.3 µM) | 2 (≈ 5.14 µM) | 0.5 (≈ 1.28 µM) | 2 (≈ 5.14 µM) | 2 (≈ 5.14 µM) | 8 (≈ 20.5 µM) | 4 (≈ 10.3 µM) | 0.25 (≈ 0.642 µM) | MIC (Gram +; [17]): 1.15 µg/mL; MIC (Proteus vulgaris CNUR 6): 64 µg/mL (≈ 164 µM); MIC [14]: 8 µg/mL (≈ 20.5 µM)
